Test results as given in PubChem BioAssay (NCI).
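The compound was tested at five concentrations on cells cultured in 96-well plates, with a 48-hour exposure period. The concentration for 50% growth inhibition is given as GI50. TGI: concentration producing complete growth inhibition.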

Legend:
Assay in all cases: NCI tumour cell line growth inhibition, 48 h
[1] = tested on: HCT-116 colon
[2] = tested on: HCT-15 colon
[3] = tested on: IGROV1 ovarian
[4] = tested on: RXF 393 renal
[5] = tested on: SF-268 CNS
[6] = tested on: SK-MEL-2 melanoma
[7] = tested on: SR leukemia
[8] = tested on: TK-10 renal

CC(C)C1OC(=O)C=C1Sc1ccccc1 (stereo not given)
TGI [1]: > 100 µM | TGI [2]: > 100 µM | TGI [3]: > 100 µM | TGI [4]: > 100 µM | TGI [5]: > 100 µM | TGI [6]: > 100 µM | TGI [7]: > 100 µM | TGI [8]: > 100 µM

COc1cc(/C=C/c2cc(/C=C/c3ccc(O)c(OC)c3)n(-c3c(C)cccc3C)c(=O)n2)ccc1O
GI50 [1]: 0.695 µM | TGI [1]: 3.38 µM | GI50 [2]: 0.442 µM | TGI [2]: 4.61 µM | GI50 [3]: 1.24 µM | TGI [3]: 6.87 µM | GI50 [5]: 1.19 µM | TGI [5]: 11.5 µM | GI50 [6]: 0.436 µM | TGI [6]: 1.73 µM | GI50 [8]: 1.14 µM | TGI [8]: 4.87 µM

CC(C)CCOc1ccc(-c2n[nH]c(C(F)(F)F)c2-c2cncc(C#N)c2)c(O)c1
GI50 [1]: 2.61 µM | TGI [1]: 10.5 µM | GI50 [2]: 2.4 µM | TGI [2]: 13.4 µM | GI50 [3]: 3.35 µM | TGI [3]: > 100 µM | GI50 [4]: 1.96 µM | TGI [4]: 6.15 µM | GI50 [5]: 4.18 µM | TGI [5]: > 100 µM | GI50 [6]: 1.75 µM | TGI [6]: 5.3 µM | GI50 [7]: 2.01 µM | TGI [7]: 11.8 µM | GI50 [8]: 3.15 µM | TGI [8]: 14.1 µM

C=C1C[C@](OC)([C@H](O)C(=O)N[C@@H](OC)[C@@H]2C[C@@H](O)C(C)(C)[C@@H](C[C@@H](COC)OC)O2)O[C@H](C)[C@@H]1C
GI50 [1]: 0.00168 µM | TGI [1]: 0.0104 µM | GI50 [2]: 0.00284 µM | TGI [2]: 0.0248 µM | GI50 [3]: 0.00295 µM | TGI [3]: 0.0161 µM | GI50 [4]: 0.00159 µM | TGI [4]: 0.00465 µM | GI50 [5]: 0.00195 µM | TGI [5]: 0.00538 µM | GI50 [6]: 0.0023 µM | TGI [6]: 0.025 µM | TGI [7]: > 1 µM | GI50 [8]: 0.00141 µM | TGI [8]: 0.00388 µM

CCOC(=O)c1sc2nc3sc(N=Nc4ccc(Cl)cc4)c(O)n3c(=S)c2c1C
GI50 [1]: 33.8 µM | TGI [1]: > 100 µM | GI50 [2]: 18.3 µM | TGI [2]: 49.3 µM | GI50 [3]: > 100 µM | TGI [3]: > 100 µM | GI50 [4]: 20.6 µM | TGI [4]: 90.4 µM | GI50 [5]: 19.7 µM | TGI [5]: 82 µM | GI50 [6]: > 100 µM | TGI [6]: > 100 µM | GI50 [7]: > 100 µM | TGI [7]: > 100 µM | GI50 [8]: 25.9 µM | TGI [8]: 96.4 µM

NS(=O)(=O)c1cc2c(cc1Cl)NC(Cc1ccccc1)NS2(=O)=O (stereo not given)
TGI [1]: > 100 µM | TGI [2]: > 100 µM | TGI [3]: > 100 µM | TGI [4]: > 100 µM | TGI [5]: > 100 µM | TGI [6]: > 100 µM | TGI [7]: > 100 µM | TGI [8]: > 100 µM

NC(=NCCCOc1ccc(Cl)cc1)Nc1ccc(Cl)cc1
GI50 [1]: 1.61 µM | TGI [1]: 3.24 µM | GI50 [2]: 2.98 µM | TGI [2]: 9.29 µM | GI50 [3]: 2.02 µM | TGI [3]: 5.83 µM | GI50 [4]: 1.86 µM | TGI [4]: 6.97 µM | GI50 [5]: 3.1 µM | TGI [5]: 13 µM | GI50 [6]: 2.32 µM | TGI [6]: 4.72 µM | GI50 [7]: 2.17 µM | TGI [7]: 5.9 µM | GI50 [8]: 1.75 µM | TGI [8]: 3.89 µM

COc1ccc(-c2ccc(/C=N/n3c(COc4ccccc4Cl)nn(CN4CCN(C)CC4)c3=S)o2)c([N+](=O)[O-])c1
GI50 [1]: 16.1 µM | TGI [1]: 29.8 µM | GI50 [2]: 17.4 µM | TGI [2]: 38.3 µM | GI50 [4]: 10.4 µM | TGI [4]: 25 µM | GI50 [5]: 17.5 µM | TGI [5]: 45.1 µM | GI50 [6]: 31.6 µM | TGI [6]: 83.3 µM | GI50 [8]: 12.9 µM | TGI [8]: 45.4 µM

COc1ccc(C(=O)c2ccc(OC)c(OC)c2OC)cc1
GI50 [1]: 2.19 µM | TGI [1]: > 100 µM | GI50 [2]: 0.596 µM | TGI [2]: > 100 µM | GI50 [3]: 1.76 µM | TGI [3]: > 100 µM | GI50 [5]: 5.2 µM | TGI [5]: > 100 µM | GI50 [6]: 0.402 µM | TGI [6]: 3.33 µM | GI50 [7]: 0.347 µM | TGI [7]: > 100 µM | GI50 [8]: 2.85 µM | TGI [8]: > 100 µM

CC(=O)c1ccc(NC(=O)CSc2nnc(-c3cc(-c4ccc(C)cc4)nc4ccccc34)o2)cc1
GI50 [1]: 2.25 µM | TGI [1]: 6.1 µM | GI50 [2]: 4.95 µM | TGI [2]: > 100 µM | GI50 [3]: 3.31 µM | TGI [3]: > 100 µM | GI50 [4]: 2.01 µM | TGI [4]: 4.26 µM | GI50 [5]: 3.12 µM | TGI [5]: > 100 µM | GI50 [6]: 12.3 µM | TGI [6]: 31.2 µM | GI50 [8]: 1.99 µM | TGI [8]: 4.89 µM

CCCCCCCC/C=C/CCCCCCCC1=NCC[N+]1(CCO)CCO
GI50 [1]: 2.81 µM | TGI [1]: 8.78 µM | GI50 [2]: 3.16 µM | TGI [2]: 11 µM | GI50 [3]: 1.59 µM | TGI [3]: 3.35 µM | GI50 [4]: 1.73 µM | TGI [4]: 4.2 µM | GI50 [5]: 3.25 µM | TGI [5]: 13 µM | GI50 [6]: 2.69 µM | TGI [6]: 6.01 µM | GI50 [8]: 1.94 µM | TGI [8]: 4.39 µM

Cc1cccc(Oc2nccc(-c3c(-c4ccc(F)cc4)ncn3C3CCNCC3)n2)c1C
GI50 [1]: 7.26 µM | TGI [1]: > 17.8 µM | GI50 [2]: 8.12 µM | TGI [2]: > 25 µM | GI50 [3]: 6.76 µM | TGI [3]: > 16.7 µM | GI50 [4]: 3.53 µM | TGI [4]: 9.17 µM | GI50 [5]: 13.3 µM | TGI [5]: > 25 µM | GI50 [6]: 9.09 µM | TGI [6]: > 15.9 µM | GI50 [8]: 7.16 µM | TGI [8]: > 16.3 µM

COc1cc(C(=O)/C=C/c2cc(C(=O)c3cc(OC)c(OC)c(OC)c3)ccc2OC)ccc1N
GI50 [1]: 0.661 µM | TGI [1]: 2.03 µM | GI50 [2]: 0.37 µM | TGI [2]: 2.12 µM | GI50 [3]: 2.07 µM | TGI [3]: 8.62 µM | GI50 [6]: 1.63 µM | TGI [6]: 3.72 µM | GI50 [8]: 3.61 µM | TGI [8]: 18 µM

COc1cccc(C2C(C#N)=C(N)Oc3cc(N)ccc32)c1 (stereo not given)
GI50 [1]: 0.383 µM | TGI [1]: > 72.2 µM | GI50 [2]: 0.385 µM | TGI [2]: > 100 µM | GI50 [3]: 0.854 µM | TGI [3]: > 100 µM | GI50 [5]: 1.57 µM | TGI [5]: > 100 µM | GI50 [6]: 0.397 µM | TGI [6]: > 100 µM | GI50 [7]: 0.3 µM | TGI [7]: > 100 µM | GI50 [8]: 2.83 µM | TGI [8]: > 100 µM

CSc1cnn(CCC#N)c(=O)n1
TGI [1]: > 100 µM | TGI [3]: > 100 µM | TGI [4]: > 100 µM | TGI [5]: > 100 µM | TGI [7]: > 100 µM | TGI [8]: > 100 µM

Cc1cc2cc3cc(C)c(N(C)C)cc3nc2cc1N(C)C
GI50 [1]: 2.12 µM | TGI [1]: > 100 µM | GI50 [2]: 12.1 µM | TGI [2]: > 100 µM | GI50 [3]: 4.96 µM | TGI [3]: > 100 µM | GI50 [4]: 7.14 µM | TGI [4]: 31.2 µM | GI50 [5]: 3.45 µM | TGI [5]: 15.1 µM | GI50 [6]: 4.02 µM | TGI [6]: 75.7 µM | GI50 [8]: 4.03 µM | TGI [8]: 31.2 µM

CC(=O)c1c(C(F)(F)F)n([O-])c2ccc(Cl)cc2[n+]1=O
GI50 [1]: 0.662 µM | GI50 [2]: 0.649 µM | TGI [2]: 4.05 µM | GI50 [3]: 0.322 µM | GI50 [4]: 5.11 µM | TGI [4]: 25.4 µM | GI50 [5]: 1.35 µM | TGI [5]: 8.78 µM | GI50 [6]: 3.18 µM | TGI [6]: 12.5 µM | GI50 [8]: 0.838 µM | TGI [8]: 2.66 µM
